In PubChem BioAssay (NCI):
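These data come from cells grown in 96-well plates and exposed to compound for 48 hours at five concentrations. TGI is the concentration that stops growth completely.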

Tests used:
Experiment in all cases: NCI anticancer screen, dose series, 48 h
786-0 renal = tested on: 786-0 renal
EKVX NSCLC = tested on: EKVX NSCLC
HCT-116 colon = tested on: HCT-116 colon
HS 578T breast = tested on: HS 578T breast
LOX IMVI melanoma = tested on: LOX IMVI melanoma
M14 melanoma = tested on: M14 melanoma
MALME-3M melanoma = tested on: MALME-3M melanoma
NCI/ADR-RES ovarian = tested on: NCI/ADR-RES ovarian
SF-539 CNS = tested on: SF-539 CNS
TK-10 renal = tested on: TK-10 renal

Row | Structure (SMILES) | TGI (786-0 renal) | TGI (EKVX NSCLC) | TGI (HCT-116 colon) | TGI (HS 578T breast) | TGI (LOX IMVI melanoma) | TGI (M14 melanoma) | TGI (MALME-3M melanoma) | TGI (NCI/ADR-RES ovarian) | TGI (SF-539 CNS) | TGI (TK-10 renal)
1 | C=CC(OC(C)=O)c1ccc(OC(C)=O)cc1 (stereo not given) | 2.99 µM | 41.4 µM | 19.4 µM | 16.6 µM | 9 µM | 22.9 µM | 11.2 µM | 54.3 µM | 4.78 µM | 4.99 µM
2 | O=C(O)COc1cc(-c2ccccc2)nc2ccccc12 | > 100 µM | > 100 µM | > 100 µM | > 100 µM | > 100 µM | > 100 µM | > 100 µM | > 100 µM | > 100 µM | > 100 µM
3 | CC(=O)O[C@H]1CCC2[C@@H]3CCC4NC(=O)C(C#N)C[C@]4(C)C3CC[C@@]21C (stereo not given in full) | > 10 µM | > 10 µM | > 10 µM | > 10 µM | > 10 µM | > 10 µM | > 10 µM | > 10 µM | > 10 µM | > 10 µM
4 | CN(C)CCNC(=O)c1cc(NC(=O)c2cc(NC(=O)CC/C=C3/[C@@H]4CC[C@H]3N=N4)cn2C)cn1C | > 100 µM | > 100 µM | > 100 µM | > 100 µM | > 100 µM | > 100 µM | > 100 µM | > 100 µM | > 100 µM | > 100 µM
5 | C=CCOC1(CC=C)C(=O)OC2C(O)COC21O (stereo not given) | > 100 µM | > 100 µM | > 100 µM | > 100 µM | > 100 µM | > 100 µM | > 100 µM | > 100 µM | > 100 µM | > 100 µM
6 | CC(C#N)N(CCc1ccccc1)C(=O)c1ccccc1 (stereo not given) | > 100 µM | > 100 µM | > 100 µM | > 100 µM | > 100 µM | > 100 µM | > 100 µM | > 100 µM | > 100 µM | > 100 µM
7 | COC(=O)/C=c1/c2ccccc2n2c1c1ccccc1[n+]2C | 14.9 µM | 7.79 µM | 10.1 µM | > 100 µM | 27.9 µM | 15.5 µM | 6.74 µM | > 100 µM | 14 µM | 9.93 µM
8 | CC(=O)NC(=O)NC1=NCCC(=O)N1CCc1c[nH]c2ccccc12 | > 100 µM | > 100 µM | > 100 µM | > 100 µM | > 100 µM | > 100 µM | > 100 µM | > 100 µM | > 100 µM | > 100 µM
9 | CC1CN=C(c2ccc(CN3CCC(C4CCN(Cc5ccc(C6=NCC(C)N6)cc5)CC4)CC3)cc2)N1 (stereo not given) | 34.1 µM | 47.2 µM | 34 µM | 41.8 µM | 56 µM | 44 µM | 63 µM | > 100 µM | 37.7 µM | 57.5 µM
10 | C=CCc1ccccc1C1CC2(C(=O)OC)OC1C(C(=O)OC)=C2C(=O)OC (stereo not given) | > 10 µM | > 10 µM | > 10 µM | > 10 µM | > 10 µM | > 10 µM | > 10 µM | > 10 µM | > 10 µM | > 10 µM
11 | COc1cc2c(cc1OC)C(=O)/C(=C/c1ccc(O)cc1)CC2 | > 10 µM | > 10 µM | > 10 µM | > 10 µM | > 10 µM | > 10 µM | > 10 µM | > 10 µM | > 10 µM | > 10 µM
12 | O=c1[nH]c2cc([N+](=O)[O-])c(Nc3c4ccccc4nc4ccccc34)c([N+](=O)[O-])c2[nH]1 | 17.6 µM | 7.47 µM | 7.39 µM | > 28.9 µM | 7.02 µM | 5.14 µM | 5.09 µM | 10.9 µM | 13.7 µM | 6.85 µM
13 | CCN1CCCn2c(=O)[nH]c3cc(Br)cc1c32 | > 100 µM | > 100 µM | > 100 µM | 97.2 µM | > 100 µM | > 100 µM | > 100 µM | > 100 µM | > 100 µM | > 100 µM
14 | COc1ccc2c(c1)C(=O)C1CCC(=O)N1C2c1ccc2c(c1)OCO2 (stereo not given) | 78.2 µM | 40.2 µM | 14.9 µM | 88.1 µM | 35.1 µM | 29 µM | 15.9 µM | > 100 µM | 42.7 µM | 86.1 µM
15 | N#Cc1c(N2CCN(c3ccc([N+](=O)[O-])cc3)CC2)[n+](=O)c2ccc(-c3ccc([N+](=O)[O-])cc3)cc2n1[O-] | > 100 µM | > 100 µM | > 100 µM | > 100 µM | > 100 µM | > 58.9 µM | > 100 µM | > 100 µM | > 100 µM | > 100 µM
16 | CNC(=O)N(CCC#N)CCCN(C(=O)N(C)C)c1ccccc1 | > 100 µM | > 100 µM | > 100 µM | > 100 µM | > 100 µM | > 100 µM | > 100 µM | > 100 µM | > 100 µM | > 100 µM
17 | O=NN1CCCS1(=O)=O | > 100 µM | > 100 µM | > 100 µM | > 100 µM | > 100 µM | > 100 µM | > 100 µM | > 100 µM | > 100 µM | > 100 µM

Row | Structure (SMILES) | TGI (786-0 renal) | TGI (EKVX NSCLC) | TGI (HCT-116 colon) | TGI (HS 578T breast) | TGI (LOX IMVI melanoma) | TGI (M14 melanoma) | TGI (MALME-3M melanoma) | TGI (NCI/ADR-RES ovarian) | TGI (SF-539 CNS) | TGI (TK-10 renal)
18 | COc1cc2c(c(OC)c1)C(=O)O[C@H](C)CCCC/C=C/C2 | 27.5 µM | 29.6 µM | 38.2 µM | > 100 µM | 23 µM | > 32.2 µM | 31.3 µM | > 77.2 µM | 25.9 µM | > 33.8 µM
19 | COc1cc2oc(-c3ccc4c(c3)OCO4)c(OC)c(=O)c2c(O)c1OC | > 50 µM | > 50 µM | > 50 µM | > 50 µM | > 50 µM | > 50 µM | > 50 µM | > 50 µM | > 50 µM | > 50 µM
20 | C[C@]12CC[C@H]3[C@@H](CCC4=C(Br)C(=O)C=C[C@@]43O)[C@@H]1CCC2=O | 81.2 µM | > 100 µM | 80.1 µM | > 100 µM | > 100 µM | > 100 µM | > 100 µM | > 100 µM | > 100 µM | 94.2 µM
21 | COc1cc2oc(=O)cc(C)c2cc1OC | > 100 µM | > 100 µM | > 100 µM | > 100 µM | > 100 µM | > 100 µM | > 100 µM | > 100 µM | > 100 µM | > 100 µM
22 | Nn1c(Sc2nc3ccccc3c(=O)n2N)nc2ccccc2c1=O | 18.6 µM | 38.9 µM | 12.6 µM | > 53.7 µM | 4.25 µM | 4.02 µM | 12.8 µM | 28.4 µM | 6.24 µM | 42.2 µM
23 | COc1cc2c(cc1O)CCN(C)[C@H]2Cc1ccc(Oc2c(O)c(OC)cc3c2C[C@H]2c4c(c(OC)c(OC)c(OC)c4-3)CCN2C)cc1 | 9.4 µM | 11.3 µM | 7.98 µM | 17.7 µM | 6.55 µM | 10.9 µM | 13.6 µM | 14.1 µM | 11.5 µM | 11.3 µM
24 | COC(=O)[C@](C)(Cc1ccccc1)NC(=O)[C@@H](C)N1[C@@H](c2ccccc2)COC1(C)C | > 100 µM | > 100 µM | > 100 µM | > 100 µM | > 100 µM | > 100 µM | > 100 µM | > 100 µM | > 100 µM | > 100 µM
25 | CC1CN=C(c2ccc(-c3nc(-c4ccc(C5=NCC(C)N5)cc4)nc(N(C)C)n3)cc2)N1 (stereo not given) | 4.49 µM | 8.67 µM | 3.16 µM | 17.6 µM | 2.93 µM | 8.68 µM | 8.87 µM | 56.4 µM | 2.2 µM | 11.5 µM
26 | CC(C)(C)C(=O)N1CCN(C=O)C1=S | > 100 µM | > 100 µM | > 100 µM | > 100 µM | > 100 µM | > 100 µM | > 100 µM | > 100 µM | > 100 µM | > 100 µM
27 | NC1c2c(Cl)sc(Cl)c2C(=O)C1O (stereo not given) | > 100 µM | 57.6 µM | > 100 µM | > 100 µM | 47.3 µM | > 100 µM | 82.4 µM | 90.6 µM | > 100 µM | > 100 µM
28 | CC(=Nc1cc(Cl)cc(Cl)c1)c1ccncc1 | > 100 µM | > 100 µM | > 100 µM | > 100 µM | > 100 µM | > 100 µM | > 100 µM | > 100 µM | > 100 µM | > 100 µM
29 | CC1=NN2C(=N)/C(=C/c3ccccc3)C(=O)N=C2S1 | > 100 µM | > 100 µM | > 100 µM | > 100 µM | > 100 µM | > 100 µM | > 100 µM | > 51 µM | > 100 µM | > 100 µM
30 | Cc1c(C#N)c(=N)oc2ccccc12 | > 100 µM | > 100 µM | > 100 µM | > 100 µM | > 100 µM | > 100 µM | > 100 µM | > 100 µM | > 100 µM | > 100 µM
31 | COC(=O)c1cc(C)ccc1C1CN=NC12Cc1c(C)cc(C)cc1C2=O (stereo not given) | > 100 µM | > 100 µM | 28.6 µM | 55.8 µM | 30.3 µM | 41.9 µM | 60.6 µM | 46.8 µM | 32.7 µM | 82.5 µM
32 | Cn1ccc2c(c1=O)C(=O)OC2(C)C | > 100 µM | > 100 µM | > 100 µM | > 100 µM | > 100 µM | > 100 µM | > 100 µM | > 100 µM | > 100 µM | > 100 µM
33 | CC(C)(Cc1ccccc1)N1C(=O)N1C(C)(C)Cc1ccccc1 | 56.4 µM | > 100 µM | > 100 µM | > 100 µM | 33.6 µM | > 100 µM | 98.4 µM | > 100 µM | > 100 µM | > 100 µM
